Assay results: US12624038B2, “Molecules and methods related to treatment of uncontrolled cellular proliferation” (ST. JUDE CHILDREN'S RESEARCH HOSPITAL, priority 2019, dated 2026)
Entries after “also recorded” stand apart in the source; their conditions may differ.

How the values were obtained:
CRLF2r B-ALL xenograft = assay: In vivo efficacy in CRLF2r B-ALL xenograft (PDX) in NSG mice; parameters: species or system mouse; settings: compound 7 30 mg/kg i.p. daily
[1] = test system: JAK2 and STAT5 phosphorylation; assay: In vivo pharmacodynamics, phosphoflow of JAK-STAT signaling in engrafted leukemic cells; parameters: species or system mouse; settings: 10, 30 and 100 mg/kg i.p., 2 daily doses
Description: For pharmacodynamic studies, after engraftment, mice with >50% hCD45 cells in peripheral blood were dosed with 10, 30 or 100 mg/kg i.p. of compound 7 for 2 daily doses. One hour after the second dose, mice were euthanized, and cells collected from bone marrow and spleen. For phosphoflow cytometry analysis, 0.75×10^6 bone marrow cells in 3 ml of medium were fixed by adding 1 ml of 10% formaldehyde and incubated at room temperature for 10 minutes. The cells then were spun down at 450 g for 5 minutes and resuspended in cold 95% methanol and stored at −20° C. For immunoblotting, splenic leukemia cells were purified by hCD19 MicroBeads (Miltenyi). Cells were pelleted and total protein extracted using RIPA buffer supplemented with Halt™ Protease Inhibitor Cocktail (ThermoFisher).
Cells (7.5×105) were treated with compounds in 3 ml of IMDM containing 1% BSA for one hour followed by treatment with or without 25 ng/mL TSLP (R&D systems) for 30 minutes. Cells were fixed for 10 minutes at room temperature by adding 1 ml of 10% UltraPure Formaldehyde (Polysciences), centrifuged for 5 minutes at 450 g, resuspended in 95% methanol (Electron Microscopy Sciences) and store at −20° C. […] Cells were analyzed on BD Biosciences LSR/Fortessa (BD Biosciences, Franklin Lakes, NJ) with BD FACSDiva 7.0 software followed by FlowJo v10 (Tree Star, Inc., Ashland, OR).

Structure (SMILES): CCCn1cc(-c2nc(Nc3ccc(C(=O)NCCCCNc4cccc5c4C(=O)N(C4CCC(=O)NC4=O)C5=O)cc3)nc3[nH]ccc23)cn1 (stereo not drawn) [Compound 7]
- spleen size and tumor burden in PDX model (CRLF2r B-ALL xenograft): reduced spleen size and tumor burden
- leukemia burden / leukemic cell proliferation in CRLF2r B-ALL xenograft (CRLF2r B-ALL xenograft; ruxolitinib 50 mg/kg oral gavage twice daily, 28-day dosing period): marked reduction in leukemia burden; also recorded: slowed leukemia growth
- inhibition of JAK2 and STAT5 phosphorylation in vivo [1]: dose dependent inhibition
